The source of these data is paper PMC5434977 (Analytical chemistry, 2016).

The subject of assay [1] is Saccharomyces cerevisiae adenine phosphoribosyltransferase (scAPRTase). As to the kind of experiment: 2,6-diaminopurine fluorescence assay of scAPRTase. It is filed as biochemical. The conditions noted are these: 1 mM PRPP.
Assay [2] deals with T1, hpMTAN (Helicobacter pylori, UniProt Q9ZMY2).
T1 sequence (Q9ZMY2 1-230): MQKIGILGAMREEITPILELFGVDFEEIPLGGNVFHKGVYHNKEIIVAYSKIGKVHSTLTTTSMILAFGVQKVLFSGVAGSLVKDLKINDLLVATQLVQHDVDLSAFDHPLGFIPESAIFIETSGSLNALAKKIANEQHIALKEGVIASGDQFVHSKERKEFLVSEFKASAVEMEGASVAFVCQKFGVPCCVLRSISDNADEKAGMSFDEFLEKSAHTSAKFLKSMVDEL
The conditions noted are these: read-out: Ki∗ literature, ref [21],[22]; cited from earlier work.

Assay [3] has as its target T2, hsMTAP (Homo sapiens, UniProt Q13126).
T2 sequence (Q13126 1-283): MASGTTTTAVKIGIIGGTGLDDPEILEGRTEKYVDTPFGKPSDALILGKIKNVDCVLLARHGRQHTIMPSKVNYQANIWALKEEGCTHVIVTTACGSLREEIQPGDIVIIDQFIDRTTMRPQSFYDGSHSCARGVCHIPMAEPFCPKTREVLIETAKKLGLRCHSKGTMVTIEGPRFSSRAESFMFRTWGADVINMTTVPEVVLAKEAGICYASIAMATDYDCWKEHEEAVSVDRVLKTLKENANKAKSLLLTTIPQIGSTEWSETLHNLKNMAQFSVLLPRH
To be noted: read-out: Ki∗ literature, ref [21],[22]; cited from earlier work.

Assay [4] addresses T2, hsMTAP. Description: Ki* by 2AMTA fluorescence-based assay, Morrison fit, hsMTAP. It is filed as biochemical. To be noted: read-out: Ki∗ measured, 1–3 mM 2AMTA as substrate, slow-onset tight-binding, Morrison equation.
For assay [5], the target named is T1, hpMTAN. As to the kind of experiment: Ki* by 2AMTA fluorescence-based assay, Morrison fit, hpMTAN. In kind it is biochemical. The conditions noted are these: read-out: Ki∗ measured, 1–3 mM 2AMTA as substrate, slow-onset tight-binding, Morrison equation.
The target in a further assay is Helicobacter pylori MTAN (Helicobacter pylori, UniProt Q9ZMY2). Description: 2AMTA continuous fluorescence kinetic assay with hpMTAN. In kind it is biochemical.
The target of a further assay is T3, Human MTAP (Homo sapiens, UniProt Q13126).
T3 sequence (Q13126 1-283): T2 sequence (Q13126 1-283)
Description: 2AMTA continuous fluorescence kinetic assay with hsMTAP. In kind it is biochemical.

The test system of assay [6] is Streptococcus pneumoniae MTAN. It is filed as biochemical.
Assay [7] has as its target T2, hsMTAP. As to the kind of experiment: MTAP pre-steady-state stopped-flow kinetics. The conditions noted are these: 10 μM 2AMTA, 5 μM MTAP.
A further assay addresses Vibrio cholerae MTAN (Vibrio cholerae serotype O1, UniProt Q9KPI8). In kind it is biochemical. The conditions noted are these: enzyme concentration 1 μM, substrate concentration 1 mM.
For the next assay, the system named is Yersinia pestis MTAN. In kind it is biochemical.
In assay [8] the target is T2, hsMTAP. The conditions noted are these: substrate MTA, ref [20],[28],[29]; cited from earlier work.
The target of assay [9] is T1, hpMTAN. To be noted: substrate MTA, ref [20],[28],[29]; cited from earlier work.
The next assay has as its system ecMTAN. To be noted: substrate MTA, ref [20],[28],[29]; cited from earlier work.
[10] abbreviates: substrate 2AMTA, 100 mM potassium phosphate pH 7.4.

Like-named read-outs stand apart in the source and are kept apart here.

Vibrio cholerae MTAN, sequence (Q9KPI8 whole entry): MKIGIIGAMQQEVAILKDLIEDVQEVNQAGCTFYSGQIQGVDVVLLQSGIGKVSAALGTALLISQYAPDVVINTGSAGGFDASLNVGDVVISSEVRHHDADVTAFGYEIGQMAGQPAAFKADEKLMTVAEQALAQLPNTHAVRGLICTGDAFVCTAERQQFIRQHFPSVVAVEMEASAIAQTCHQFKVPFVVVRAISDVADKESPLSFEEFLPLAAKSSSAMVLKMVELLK

`Nc1nc(N)c2[nH]cnc2n1` [2,6-diaminopurine]: in [1], the “fold decreased kcat compared to adenine” value was ~400 fold, the “fold increased KM compared to adenine” value is reported as “approximately 2 fold” and the “kcat/KM reduced by a factor compared to adenine” value was determined as 800 fold.
As for `CSC[C@H]1CN(Cc2c[nH]c3c(N)ncnc23)C[C@@H]1O` [MT-DADMe-ImmA, Methylthio-DADMe-Immucillin-A], the Ki was 0.089 ± 0.019 nM at hpMTAN [2], 0.09 ± 0.01 nM at hsMTAP [3], 0.063 ± 0.01 nM on hsMTAP [4] and 0.015 ± 0.0014 nM at hpMTAN [5].
Take 2-amino-5′-methylthioadenosine [2AMTA]: the “decrease of catalytic efficiency (kcat/KM) with 2AMTA relative to MTA” value at Helicobacter pylori MTAN and at Human MTAP was ~10 fold in each case. The results for the Km at Helicobacter pylori MTAN (setting [10]), at Human MTAP (setting [10]) and in the assay with Yersinia pestis MTAN were 3.1 ± 0.5 µM, 34 ± 7 µM and 11 ± 4.4 µM, respectively. Moreover, the kcat on Helicobacter pylori MTAN (setting [10]) is 7.0 ± 0.4 s⁻¹; on Human MTAP (setting [10]), 1.7 ± 0.2 s⁻¹; in assay [6] (substrate 2AMTA, Streptococcus pneumoniae MTAN, 1 μM enzyme, 1 mM 2AMTA), <10^−5 s^−1; with Yersinia pestis MTAN (substrate 2AMTA, Yersinia pestis MTAN) it was 1.1 ± 0.28 s⁻¹. The “hydrolysis of 2AMTA” value is “unable to hydrolyze 2AMTA at significant rates” in assay [6] (enzyme concentration 1 μM, substrate concentration 1 mM) and “unable to hydrolyze 2AMTA at significant rates” at Vibrio cholerae MTAN. Further, the “apparent turnover rate (pre-steady-state)” value on hsMTAP [7] was found to be 270 ± 1 s⁻¹.
Regarding `CSCC1NC(c2c[nH]c3c(N)ncnc23)[C@@H](O)[C@H]1O` (stereo partly drawn) [MT-ImmA, Methylthio-Immucillin-A], the inhibition constant Ki on hpMTAN [2] is 0.04 ± 0.02 nM; on hsMTAP [3], 1 ± 0.5 nM; at hsMTAP [4], 0.33 ± 0.068 nM; at hpMTAN [5], 0.066 ± 0.011 nM.
As for 5′-methylthioadenosine [MTA], the values for the Michaelis-Menten constant (Km) at hsMTAP [8], on hpMTAN [9] and in the assay with ecMTAN were 5 ± 1 µM, 0.6 ± 0.3 µM and 0.19 ± 0.02 µM, respectively. Moreover, the results for the kcat at hsMTAP [8], on hpMTAN [9] and with ecMTAN were 2.5 ± 0.7 s⁻¹, 12.1 ± 2.3 s⁻¹ and 2.3 ± 0.1 s⁻¹, respectively.
In the case of `Nc1ncnc2c(CN3CC(CSc4ccc(Cl)cc4)[C@H](O)C3)c[nH]c12` (stereo partly drawn) [pCl-PhT-DADMe-ImmA, pCl-PhT-DADMe-Immucillin-A], the inhibition constant Ki on hpMTAN [2] is 0.57 ± 0.09 nM; at hsMTAP [3], 0.01 ± 0.005 nM; at hsMTAP [4], 0.047 ± 0.013 nM; on hpMTAN [5], 0.36 ± 0.032 nM.

A word on the Ki: it is the equilibrium dissociation constant of an inhibitor or competing ligand from its target. For orientation: Km means the substrate concentration at which the rate is half of its maximum. The term kcat denotes the maximal rate divided by the concentration of active sites.
